According to US20140349955A1, “USE OF FLUORINE-CONTAINING WATER SOLUBLE PLATINUM COMPLEX IN PREPARING DRUGS FOR PREVENTION AND TREATMENT OF CANCERS” (GUDUI BIOPHARMA TECHNOLOGY INC., priority 2011, published 2014):

What was measured:
MCF7 = assay: Synergistic cytotoxicity test (MTS), MCF7; assay type: cell-based, human; details: 96 h
Experimental: (§1) Containing 10% bovine fetal serum, 1 mM of sodium pyruvate, 2 mM of L-glutamine, 50 U/mL of penicillin, 50 μg/ mL of streptomycin.
(§2) Human tumor cells: du145-human prostate cancer; MCF-7-human breast cancer; SK0V3-human ovarian carcinoma, HT-29-human colon cancer; A549-human non-small cell lung cancer (adenocarcinoma), H460-human non-small cell lung cancer (large cell carcinoma), and animal tumor cells: L1210-mice leukemia cells used in the following activity test experiments were all purchased from Shanghai An Yan Commercial Trade Co., Ltd.
(§3) MTS test method was used in cytotoxicity assay. The tumor cells of logarithmic phase were collected, and then the concentration of cell suspension was adjusted, 100 μL of the cell suspension was added to each well, the cells were placed at 1000-10000 cells/well (edge well filled with sterile PBS). Cells were incubated at 37° C. with 5% CO2 to make cell monolayer overspread the bottom of each well (96-well flat-bottomed microplate). 100 μL of certain concentration solution of a mixture of the fluorine-containing water-soluble platinum complex with other antitumor agents was added to each well. Each condition was measured in five replicates. The microplate was incubated at 37° C. with 5% CO2 for 96 h and checked with inverted microscope. MTS working reagent: To 2 mL of MTS (2 mg/mL, prepared by DPBS) was added 100 μL of PMS (1 mg/mL, prepared by DPBS). The cell culture medium was discarded after centrifugation, the cell culture plate was carefully washed 2-3 times with PBS. Before detecting the absorbance value (OD), to each sample containing well was added 100 μL of cell culture medium, then 20 μL of MTS working reagent was added. After incubation at 37° C. with 5% CO2 for 2 h, the OD (optical density) value was detected at 490 nm.
(§4) Each of above experiment was repeated five times, and the cell viability was calculated according to the mean OD values.
(§5) Cell Viability (%)=(treated group OD value/control group OD value)×100
(§6) Control group: the conditions are the same as the above without adding the tested drug mixture (100 μL of culture medium was added in stead), and finally the absorbance was measured at 490 nm to obtain the OD value of the tumor cells.
(§7) Drug Group-1: only the fluorine-containing water-soluble platinum complex was added under the above conditions to obtain cell viability of tumor cells.
(§8) Drug Group-2: only the other chemotherapeutic drug (active ingredient) was added under the above conditions to obtain cell viability of tumor cells.
(§9) Drug Combination Group: the fluorine-containing water-soluble platinum complex and other chemotherapeutic drugs were added simultaneously under the above conditions to obtain cell viability of tumor cell. (2) Evaluation Method:
(§10) When the fluorine-containing water-soluble platinum complexes used in combination with other chemotherapy drugs, the inhibition effect on cancer cell proliferation is enhanced or synergistic, and the effect was calculated using the following formula:
(§11) Combination Effect (%)={[(A1-X)+(A2-X)]/(A1-A2)|}×100
(§12) wherein, A1 is the cell viability of drug group-1, A2 is the cell viability of drug group-2, X is the cell viability of drug combination group, (A1-A2)| is the absolute value of the cell viability difference between the two groups.
(§13) Calculated according to the above formula, when the results of [Combination Effect (%)]>+100%, that means the effect of inhibition on cell proliferation is enhanced or synergistic (3) Experimental Result: […]

H460 = assay: Synergistic cytotoxicity test (MTS), H460; assay type: cell-based, human; details: 96 h
Experimental: as §1, §2, §3, §4, §5, §6, §7, §8, §9, §10, §11, §12, §13

DU145 = assay: Synergistic cytotoxicity test (MTS), DU145; assay type: cell-based, human; details: 96 h
Experimental: as §1, §2, §3, §4, §5, §6, §7, §8, §9, §10, §11, §12, §13

A549 = assay: Synergistic cytotoxicity test (MTS), A549; assay type: cell-based, human; details: 96 h
Experimental: as §1, §2, §3, §4, §5, §6, §7, §8, §9, §10, §11, §12, §13

HT29 = assay: Synergistic cytotoxicity test (MTS), HT29; assay type: cell-based, human; details: 96 h
Experimental: as §1, §2, §3, §4, §5, §6, §7, §8, §9, §10, §11, §12, §13

SK0V3 = assay: Synergistic cytotoxicity test (MTS), SKOV3; assay type: cell-based, human; details: 96 h
Experimental: as §1, §2, §3, §4, §5, §6, §7, §8, §9, §10, §11, §12, §13

L1210 tumor cells = assay: Antitumor efficacy in L1210 tumor-bearing CDF1 mice (increase in life span); assay type: in vivo
Experimental: In the following test, antitumor efficacy studies were performed using 8-9 weeks old female CDF1 mice, the average weight of the animal is 20-25 grams. L1210 tumor cells (about 10^5 cells per mouse) were inoculated intraperitoneally. The fluorine-containing water-soluble platinum complexes were used to treat the tumor-bearing animals and the efficacy was compared compared with the clinical platinum antitumor drugs. […] Drugs were administered intraperitoneally on day 1 and day 4 after tumor cell transplantation. The number of experimental animals in each group was 6.
The experimental animals were purchased from Vital River Laboratory Animal Technology Co. Ltd., Tumor cells L1210-leukemia cells were purchased from Shanghai An Yan Commercial Trade Co. Ltd.
The increase in life span (ILS) is calculated as follows:
Wherein, St=the weighted median survival time of treated animals; Su=the weighted median survival time of untreated animals

[1] = other chemotherapy drug (at its listed dosage) combined with Complex 2 (dosage: 1 μM)
[2] = other chemotherapy drug (at its listed dosage) combined with Complex 3 (dosage: 1 μM)
[3] = other chemotherapy drug (at its listed dosage) combined with Complex 5 (dosage: 1 μM)
[4] = other chemotherapy drug (at its listed dosage) combined with Complex 6 (dosage: 1 μM)
[5] = other chemotherapy drug (at its listed dosage) combined with Complex 2 (dosage: 1 μM), SLOV3
[6] = other chemotherapy drug (at its listed dosage) combined with Complex 3 (dosage: 1 μM), SlOV3
[7] = other chemotherapy drug (at its listed dosage) combined with Complex 5 (dosage: 1 μM), SLOV3
[8] = other chemotherapy drug (at its listed dosage) combined with Complex 6 (dosage: 1 μM), SLOV3
[9] = 1.25 mg/Kg i.p. on day 1 and day 4
[10] = 2.5 mg/Kg i.p. on day 1 and day 4
[11] = 5.0 mg/Kg i.p. on day 1 and day 4
[12] = 50 mg/Kg i.p. on day 1 and day 4
[13] = 100 mg/Kg i.p. on day 1 and day 4
[14] = 200 mg/Kg i.p. on day 1 and day 4

Row | SMILES | the effect of drug combination (Combination Effect) (MCF7; [1]) | the effect of drug combination (Combination Effect) (MCF7; [2]) | the effect of drug combination (Combination Effect) (MCF7; [3]) | the effect of drug combination (Combination Effect) (MCF7; [4]) | the effect of drug combination (Combination Effect) (H460; [3]) | the effect of drug combination (Combination Effect) (H460; [4]) | the effect of drug combination (Combination Effect) (DU145; [1]) | the effect of drug combination (Combination Effect) (DU145; [2]) | the effect of drug combination (Combination Effect) (DU145; [3]) | the effect of drug combination (Combination Effect) (DU145; [4]) | the effect of drug combination (Combination Effect) (A549; [1]) | the effect of drug combination (Combination Effect) (A549; [2]) | the effect of drug combination (Combination Effect) (HT29; [1]) | the effect of drug combination (Combination Effect) (HT29; [2]) | the effect of drug combination (Combination Effect) (HT29; [3]) | the effect of drug combination (Combination Effect) (HT29; [4]) | the effect of drug combination (Combination Effect) (SK0V3; [5]) | the effect of drug combination (Combination Effect) (SK0V3; [6]) | the effect of drug combination (Combination Effect) (SK0V3; [7]) | the effect of drug combination (Combination Effect) (SK0V3; [8]) | also measured
1 | O=c1[nH]cc(F)c(=O)[nH]1 [5-Fluorouracil] | ⊚ (⊚ represents the effect of drug combination > 300%) | ⊚ (⊚ represents the effect of drug combination > 300%) | ⊚ (⊚ represents the effect of drug combination > 300%) | ⊚ (⊚ represents the effect of drug combination > 300%) | ⊚ (⊚ represents the effect of drug combination > 300%) | ⊚ (⊚ represents the effect of drug combination > 300%) | ⊚ (⊚ represents the effect of drug combination > 300%) | ⊚ (⊚ represents the effect of drug combination > 300%) | ⊚ (⊚ represents the effect of drug combination > 300%) | ⊚ (⊚ represents the effect of drug combination > 300%) | ⊚ (⊚ represents the effect of drug combination > 300%) | ⊚ (⊚ represents the effect of drug combination > 300%) | ⊚ (⊚ represents the effect of drug combination > 300%) | ⊚ (⊚ represents the effect of drug combination > 300%) | ⊚ (⊚ represents the effect of drug combination > 300%) | ⊚ (⊚ represents the effect of drug combination > 300%) | ⊚ (⊚ represents the effect of drug combination > 300%) | ⊚ (⊚ represents the effect of drug combination > 300%) | ⊚ (⊚ represents the effect of drug combination > 300%) | ⊚ (⊚ represents the effect of drug combination > 300%) | –
2 | CCCCCOC(=O)Nc1nc(=O)n([C@@H]2O[C@H](C)[C@@H](O)[C@H]2O)cc1F [Capecitabine] | ⊚ (⊚ represents the effect of drug combination > 300%) | ⊚ (⊚ represents the effect of drug combination > 300%) | ⊚ (⊚ represents the effect of drug combination > 300%) | ⊚ (⊚ represents the effect of drug combination > 300%) | ○ (○ represents: 100% < the effect of drug combination < 300%) | ○ (○ represents: 100% < the effect of drug combination < 300%) | ○ (○ represents: 100% < the effect of drug combination < 300%) | ○ (○ represents: 100% < the effect of drug combination < 300%) | ○ (○ represents: 100% < the effect of drug combination < 300%) | ○ (○ represents: 100% < the effect of drug combination < 300%) | ○ (○ represents: 100% < the effect of drug combination < 300%) | ○ (○ represents: 100% < the effect of drug combination < 300%) | ⊚ (⊚ represents the effect of drug combination > 300%) | ○ (○ represents: 100% < the effect of drug combination < 300%) | ○ (○ represents: 100% < the effect of drug combination < 300%) | ○ (○ represents: 100% < the effect of drug combination < 300%) | ○ (○ represents: 100% < the effect of drug combination < 300%) | ○ (○ represents: 100% < the effect of drug combination < 300%) | ○ (○ represents: 100% < the effect of drug combination < 300%) | ○ (○ represents: 100% < the effect of drug combination < 300%) | –
3 | N.N.[Cl][Pt][Cl] [Cisplatin] | – | – | – | – | – | – | – | – | – | – | – | – | – | – | – | – | – | – | – | – | ILS (%) (L1210 tumor cells; [9]): 36%; Survived Animals on Day 42 (L1210 tumor cells; [9]): 0/6; ILS (%) (L1210 tumor cells; [10]): 100%; Survived Animals on Day 42 (L1210 tumor cells; [10]): 0/6; ILS (%) (L1210 tumor cells; [11]): 236%; Survived Animals on Day 42 (L1210 tumor cells; [11]): 3/6
4 | [NH2][Pt]1([NH2])[O]C(=O)C(F)(CCCOC2OC(CO)C(O)C(O)C2O)C(=O)[O]1 (stereo not drawn) [Complex 15] | – | – | – | – | – | – | – | – | – | – | – | – | – | – | – | – | – | – | – | – | ILS (%) (L1210 tumor cells; [12]): >380%; Survived Animals on Day 42 (L1210 tumor cells; [12]): 6/6; Weight Changes (g) (L1210 tumor cells; 50 mg/Kg i.p. on day 1 and day 4, weight changes from the first day to the seventh day): +1.0 g; ILS (%) (L1210 tumor cells; [13]): >380%; Survived Animals on Day 42 (L1210 tumor cells; [13]): 6/6; Weight Changes (L1210 tumor cells; 100 mg/Kg i.p. on day 1 and day 4, weight changes from the first day to the seventh day): -0.3 g; ILS (%) (L1210 tumor cells; [14]): >380%; Survived Animals on Day 42 (L1210 tumor cells; [14]): 6/6; Weight Changes (L1210 tumor cells; 200 mg/Kg i.p. on day 1 and day 4, weight changes from the first day to the seventh day): -0.8 g
5 | Nc1ccn([C@@H]2O[C@H](CO)[C@@H](O)C2(F)F)c(=O)n1 [Gemcitabine] | ⊚ (⊚ represents the effect of drug combination > 300%) | ⊚ (⊚ represents the effect of drug combination > 300%) | ⊚ (⊚ represents the effect of drug combination > 300%) | ⊚ (⊚ represents the effect of drug combination > 300%) | ⊚ (⊚ represents the effect of drug combination > 300%) | ⊚ (⊚ represents the effect of drug combination > 300%) | ⊚ (⊚ represents the effect of drug combination > 300%) | ○ (○ represents: 100% < the effect of drug combination < 300%) | ○ (○ represents: 100% < the effect of drug combination < 300%) | ○ (○ represents: 100% < the effect of drug combination < 300%) | ⊚ (⊚ represents the effect of drug combination > 300%) | ⊚ (⊚ represents the effect of drug combination > 300%) | ⊚ (⊚ represents the effect of drug combination > 300%) | ⊚ (⊚ represents the effect of drug combination > 300%) | ⊚ (⊚ represents the effect of drug combination > 300%) | ⊚ (⊚ represents the effect of drug combination > 300%) | ⊚ (⊚ represents the effect of drug combination > 300%) | ○ (○ represents: 100% < the effect of drug combination < 300%) | ○ (○ represents: 100% < the effect of drug combination < 300%) | ○ (○ represents: 100% < the effect of drug combination < 300%) | –
